Test system: M17D-TR/αS-3K::YFP cells
Assay: α-Syn inclusion-forming neuroblastoma cell experiment (Incucyte)
Assay type: cell-based
Conditions: M17D αS-3K::YFP cells; for cell confluence: relative to DMSO vehicle
Protocol: FIG. 11. Compound 1 prevents αS inclusion formation. M17D cells expressing the inclusion-prone αS-3K::YFP fusion protein (dox-inducible) were treated with 0.1% DMSO (vehicle; “0 μM”) as well as 1.25, 2.5, 5 and 10 μM of compounds 1, 2 and 8 at t=24 hours after plating. Cells were induced with doxycycline at t=48 hours. A) Incucyte-based analysis of punctate YFP signals relative to 0.1% DMSO was done at t=96 hours (N=3 independent experiments, n=6-18 individual wells total (0 μM, n=18; 10 μM, n=6; all other concentrations, n=12). B) Same as panel A, but confluence fold changes relative to DMSO vehicle (0 μM) were plotted. C) Representative IncuCyte images of reporter cells treated with vehicle vs. 10 μM compounds 1, 2, or 8 (t=96 h), green channel. Arrows indicate αS-rich YFP-positive inclusions. Scale bar, 50 μm. All data are presented as fold-changes relative to DMSO control +/−standard deviation. One-way ANOVA, Dunnett's post-hoc test; *, p<0.05; **, p<0.01; ***, p<0.001.
Chemical and peptide source. Dimethylsulfoxide (DMSO) and thioflavin-T (ThT) were purchased from Alfa Aesar (Ward Hill, MA). Recombinant α-synuclein (α-syn) was procured from rPeptide (WatKinsville, GA). The recombinant p-tau isoform 1N4R was prepared as published previously (Fortin et al. 2021, Sui et al. 2015, Liu et al. 2020). Concerning the preparation of tau 0N4R, a bacterial expression plasmid consisting of the vector pET30a carrying a cDNA encoding the human Tau 0N4R isoform was a kind gift of Dr. Benjamin Wolozin (Boston University). E. coli stock (Rosetta BL21 E. coli (CamR) containing pET30a [0N4R tau wt] (KanR)) was grown in LB medium supplemented with kanamycin (50 μg/mL) and chloramphenicol (50 μg/mL). Protein over-expression was induced by the addition of 1 mM IPTG for ˜18 hours at 37° C., and cells were pelleted by centrifugation at 6,000 g for 15 minutes at 4° C. The cells were resuspended in lysis buffer (10 mM Hepes, pH 7.4, 50 mM NaCl, 1 mM MgCl2, 1 mM PMSF, 1× PIC, and 0.5 mM DTT) and lysed by sonication at 30 seconds “On” and 1 minute “Off” at ˜30-45% power for ˜3-5 minutes. Lysate was centrifuged at 10,000 rpm for 10 minutes at 4° C., and supernatant was transferred with 7.8 ml (total) of 3M NaCl. The lysate was incubated for 10 minutes in 80° C. water bath, then cooled for 10 minutes in an ice bath. The lysate was centrifuged at 10,000 rpm at 4° C. for 10 minutes, and the supernatant was transferred to a new tube. The supernatant was dialyzed overnight against cation exchange buffer (50 mM MES, […], 1 mM DTT, pH 6.0). The dialysate was loaded onto a HiPrep SP HP column, and proteins were eluted with a linear gradient ranging from 50 mM to 1 M NaCl. General Characterizations. ^1H and ^13C {1H} NMR spectra were recorded using a 500 MHz Bruker instrument working at a frequency of 500 MHz for ^1H and at 126 MHz for ^13C. Chemical shifts are reported in ppm using residual solvent resonances as internal reference (δ 2.50 and δ 39.51 for ^1H and ^13C in DMSO-d6, respectively). ^1H NMR data are reported as follows. b=broad, s=singlet, d=doublet, t=triplet, q=quartet, and m=multiplet. Coupling constants are given in hertz. The purity of all compounds and synthetic intermediates was judged to be 95% or better based on ^1H NMR. […] Thioflavin fluorescence assays. Thioflavin fluorescence assays were used to monitor fibril formation of commercial recombinant α-syn at a final concentration of 2 μM and treated with control DMSO and different compounds. […]

| SMILES | cell confluence (1.25 to 10 μM) | numbers of α-syn inclusions (1.25 to 10 μM, t=96 hours) | α-syn inclusion formation (punctate YFP signals relative to DMSO) (5 and 10 μM, t=96 hours) |
| --- | --- | --- | --- |
| O=C(Nc1ccc(NC(=O)Nc2cccc3[nH]ccc23)cc1)Nc1cccc2[nH]ccc12 [Compound 1, 3-(1H-indol-4-yl)-1-(4-{[(1H-indol-4-yl)carbamoyl]amino}phenyl)urea] | did not exhibit changes in the cell confluence | – | – |
| S=C(Nc1ccc(NC(=S)Nc2cccc3cc[nH]c23)cc1)Nc1cccc2cc[nH]c12 [Compound 8, 3-(1H-indol-7-yl)-1-(4-{[(1H-indol-7-yl)carbamothioyl]amino}phenyl)thiourea] | did not exhibit changes in the cell confluence | very minimal changes in the numbers of inclusions | – |
| S=C(Nc1ccc(NC(=S)Nc2cccc3[nH]ccc23)cc1)Nc1cccc2[nH]ccc12 [Compound 2, 3-(1H-indol-4-yl)-1-(4-{[(1H-indol-4-yl)carbamothioyl]amino}phenyl)thiourea] | did not exhibit changes in the cell confluence | – | increased the inclusions |
